Publication PMC9106035, “Synthesis, X-ray Structure and Biological Studies of New Self-Assembled Cu(II) Complexes Derived from s-Triazine Schiff Base Ligand” (Molecules, 2022)

Tests used:
[1] = DPPH radical scavenging assay; assay type: biochemical; conditions: for IC50 (DPPH scavenging): antioxidant activity
Procedure: The studied Cu(II) complexes and the free ligands were assessed for their antioxidant activity levels using an α,α-diphenyl-β-picrylhydrazyl (DPPH) scavenging assay, and the results are given in Table 7. […] The results indicated better antioxidant activity for DMAT than for DMOHT, indicating the effect of the substituent at the phenyl moiety on the antioxidant activity level of the free ligand. […] On the other hand, the Cu(II) complexes have improved levels of antioxidant activity compared to the free ligands.
Method S3 DPPH Radical Scavenging Activity:
Freshly prepared (0.004 %w/v) methanol solution of 2,2-diphenyl-1-pi crylhydrazyl (DPPH) radical was prepared and stored at 10 °C in dark place. A methanolic solution of the test compound was prepared using the same procedure. A 40 uL aliquot of the methanol solution was added to 3mL of DPPH solution. Absorbance measurements were recorded immediately with a UV-visible spectrophotometer (Milton Roy, Spectronic 1201). The decrease in absorbance at 515 nm was determined continuously, with data being recorded at 1 min intervals until the absorbance stabilized (16 min). The absorbance of the DPPH radical without antioxidant (control) and the reference compound ascorbic acid were also measured.
All the determinations were performed in three replicates and averaged. The percentage inhibition (PI) of the DPPH radical was calculated according to the […]
PI = [{(AC- AT)/ AC} x 100] (1)
Where AC = Absorbance of the control at t = 0 min and AT = absorbance of the sample+DPPH at t = 16 min. The 50% inhibitory concentration (IC50), the concentration required t o inhibit DPPH radical by 50%, was estimated from graphic plots of the dose respons e curve.

[2] = system: lung carcinoma A-549 cell line; assay: Anticancer activity, MTT viability assay; assay type: cell-based; conditions: for Inhibitory % / Viability %: A-549; for SI = CC50/IC50: CC50 (MRC-5) / IC50 (A-549)
Procedure: The studied compounds were examined for their anticancer activity against the lung carcinoma A-549 cell line.
(§1) Method S4 Evaluation of Cytotoxic activity
(§2) The cells were propagated in Dulbecco’s modified Eagle’s medium (DMEM) supplemented with 10% heat-inactivated fetal bovine serum, 1 % L-glutamine, HEPES buffer and 50µg/mL Gentamycin. All cells were maintained at 37 °C in a humidified atmosphere with 5% CO2 and were subcultured tw o times a week.
(§3) Cytotoxicity evaluation using viability assay
(§4) For cytotoxicity assay, the cells were seeded in 96-well plate at a cell concentration of 1×10^4 cells per well in 100µl of growth medium. Fresh medium containing different concentrations of the test sample was added after 24 h of seeding. Serial two-fold dilutions of the tested chemical compound were added to confluent cell monolayers dispensed into 96-well, flat-bottomed microtiter plates (Falcon, NJ, USA) using a multichannel pipette. The microtiter plates were incubated at 37 °C in a humidified incubator with 5% CO2 for a period of 24 h. Three wells were used for each concentration of the test sample. Control cells were incubated without test sample and with or without DMSO. The little percentage of DMSO present in the […]
(§5) cells for at 37°C, for 24 h, the viabl e cells yield was determined by the MTT test.
(§6) Briefly, the media was removed from the 96 well plate and replaced with 100 µL of fresh culture DMEM m edium without phenol red then 10 µL of the 12 mM MTT stock solution (5 mg of MTT in 1 mL of PBS) to each well including the untreated controls. The 96 well plates were then incubated at 37°C and 5% CO2 for 4 hours. An 85 µL aliquot of the media was removed from t he wells, and 50 µL of DMSO was added to each well and mixed thoroughly with the pipette and incubated at 37°C for 10 min. Then, the optical density was measured at 590 nm with the microplate reader (SunRise, TECAN, Inc, USA) to determine the number of viable cells and the percentage of viability was calculat ed as [(ODt/ODc)]x100% where ODt i s the mean optical density of wells treated with the tested s ample and ODc is the mean optical density of untreated cells. The relation between surviving cells and drug concentration is plotted to get the survival curve of each tumor cell line after treatment with the specified compound. The 50% inhibitory concentration (IC50), the concentration required to cause t oxic effects in 50% of intact cells, was estimated from graphic plots of the dose response curve for each conc. using Graphpad Prism software (San Diego, […]

[3] = system: normal human lung fibroblast MRC-5 cells; assay: Cytotoxic activity on normal cells, MTT viability assay; assay type: cell-based; conditions: for Inhibitory % / Viability %: MRC-5; for CC50: MRC-5 cells, 24 h, MTT
Procedure: In this regard, the selectivity index (SI) was calculated as the ratio of cytotoxic effect on the normal cell line to the cytotoxic effect on the cancer cell line.
as §1, §2, §3, §4, §5, §6

[4] = sample conc. 120.0 µM, Table S8
[5] = sample conc. 239.9 µM, Table S8
[6] = sample conc. 479.8 µM, Table S8
[7] = sample conc. 959.6 µM, Table S8
[8] = sample conc. 15.0 µM, Table S13
[9] = sample conc. 29.9 µM, Table S13
[10] = sample conc. 60.0 µM, Table S13
[11] = sample conc. 120.0 µM, Table S13
[12] = sample conc. 239.9 µM, Table S13
[13] = sample conc. 479.8 µM, Table S13
[14] = sample conc. 959.6 µM, Table S13
[15] = sample conc. 119.3 µM, Table S9
[16] = sample conc. 238.6 µM, Table S9
[17] = sample conc. 477.1 µM, Table S9
[18] = sample conc. 954.2 µM, Table S9
[19] = sample conc. 14.9 µM, Table S14
[20] = sample conc. 29.8 µM, Table S14
[21] = sample conc. 59.6 µM, Table S14
[22] = sample conc. 119.3 µM, Table S14
[23] = sample conc. 238.6 µM, Table S14
[24] = sample conc. 477.1 µM, Table S14
[25] = sample conc. 954.2 µM, Table S14

With CC(=NNc1nc(N2CCOCC2)nc(N2CCOCC2)n1)c1ccccc1[O-].CC(=O)[O-].[Cu+2] [Complex 2, [Cu(DMOT)(CH3COO)]] the “DPPH Scavenging %” value ([1]; Conc. 2.5 μg/mL) was 9.39%, the “DPPH Scavenging %” value ([1]; Conc. 5 μg/mL) was 17.66% and the “DPPH Scavenging %” value ([1]; Conc. 10 μg/mL) was 36.52%. For the same compound, the “DPPH Scavenging %” value ([1]; Conc. 20 μg/mL) was 49.08%, the “DPPH Scavenging %” value ([1]; Conc. 40 μg/mL) was 67.84% and the “DPPH Scavenging %” value ([1]; Conc. 80 μg/mL) was 78.62%. The “DPPH Scavenging %” value ([1]; Conc. 160 μg/mL) was 83.14%, the “DPPH Scavenging %” value ([1]; Conc. 320 μg/mL) was 88.03% and the “DPPH Scavenging %” value ([1]; Conc. 640 μg/mL) was 92.15%. The “DPPH Scavenging %” value ([1]; Conc. 1280 μg/mL) was 94.54%, the “IC50 (DPPH scavenging)” value [1] was 20.93 ± 0.91 µg/mL and the Inhibitory % ([2]; sample conc. 1.9 µM, Table S8) was 0%. It also gave a Viability % ([2]; sample conc. 1.9 µM, Table S8) of 100%, an Inhibitory % ([2]; sample conc. 3.8 µM, Table S8) of 2.84% and a Viability % ([2]; sample conc. 3.8 µM, Table S8) of 97.16%. The Inhibitory % ([2]; sample conc. 7.5 µM, Table S8) was 10.59%, the Viability % ([2]; sample conc. 7.5 µM, Table S8) was 89.41% and the Inhibitory % ([2]; sample conc. 15.0 µM, Table S8) was 21.88%. The Viability % ([2]; sample conc. 15.0 µM, Table S8) was 78.12%, the Inhibitory % ([2]; sample conc. 29.9 µM, Table S8) was 40.57% and the Viability % ([2]; sample conc. 29.9 µM, Table S8) was 59.43%. The Inhibitory % ([2]; sample conc. 60.0 µM, Table S8) was 58.63%, the Viability % ([2]; sample conc. 60.0 µM, Table S8) was 41.37% and the Inhibitory % [2, 4] was 71.3%. It also gave a Viability % [2, 4] of 28.70%, an Inhibitory % [2, 5] of 83.57% and a Viability % [2, 5] of 16.43%. For the same compound, the Inhibitory % [2, 6] was 92.15%, the Viability % [2, 6] was 7.85% and the Inhibitory % [2, 7] was 96.38%. For the same compound, the Viability % [2, 7] was 3.62%, the “SI = CC50/IC50” value [2] was 0.72 and the Inhibitory % ([3]; sample conc. 1.9 µM, Table S13) was 0%. For the same compound, the Viability % ([3]; sample conc. 1.9 µM, Table S13) was 100%, the Inhibitory % ([3]; sample conc. 3.8 µM, Table S13) was 0% and the Viability % ([3]; sample conc. 3.8 µM, Table S13) was 100%. It also gave an Inhibitory % ([3]; sample conc. 7.5 µM, Table S13) of 1.29%, a Viability % ([3]; sample conc. 7.5 µM, Table S13) of 98.71% and an Inhibitory % [3, 8] of 7.13%. The Viability % [3, 8] was 92.87%, the Inhibitory % [3, 9] was 13.76% and the Viability % [3, 9] was 86.24%. The Inhibitory % [3, 10] was 32.82%, the Viability % [3, 10] was 67.18% and the Inhibitory % [3, 11] was 57.65%. The Viability % [3, 11] was 42.35%, the Inhibitory % [3, 12] was 72.02% and the Viability % [3, 12] was 27.98%. For the same compound, the Inhibitory % [3, 13] was 84.79%, the Viability % [3, 13] was 15.21% and the Inhibitory % [3, 14] was 94.26%. It also gave a Viability % [3, 14] of 5.74% and a CC50 [3] of 101 µM.
With CC(=NNc1nc(N2CCOCC2)nc(N2CCOCC2)n1)c1ccccc1[O-].O=[N+]([O-])[O-].[Cu+2] [Complex 3, [Cu(DMOT)(NO3)]] the “DPPH Scavenging %” value ([1]; Conc. 2.5 μg/mL) was 11.46%, the “DPPH Scavenging %” value ([1]; Conc. 5 μg/mL) was 18.73% and the “DPPH Scavenging %” value ([1]; Conc. 10 μg/mL) was 32.95%. The “DPPH Scavenging %” value ([1]; Conc. 20 μg/mL) was 51.32%, the “DPPH Scavenging %” value ([1]; Conc. 40 μg/mL) was 68.9% and the “DPPH Scavenging %” value ([1]; Conc. 80 μg/mL) was 81.47%. For the same compound, the “DPPH Scavenging %” value ([1]; Conc. 160 μg/mL) was 85.92%, the “DPPH Scavenging %” value ([1]; Conc. 320 μg/mL) was 90.81% and the “DPPH Scavenging %” value ([1]; Conc. 640 μg/mL) was 94.29%. The “DPPH Scavenging %” value ([1]; Conc. 1280 μg/mL) was 95.76%, the “IC50 (DPPH scavenging)” value [1] was 19.31 ± 0.73 µg/mL and the Inhibitory % ([2]; sample conc. 1.9 µM, Table S9) was 0%. The Viability % ([2]; sample conc. 1.9 µM, Table S9) was 100%, the Inhibitory % ([2]; sample conc. 3.8 µM, Table S9) was 1.37% and the Viability % ([2]; sample conc. 3.8 µM, Table S9) was 98.63%. For the same compound, the Inhibitory % ([2]; sample conc. 7.4 µM, Table S9) was 7.25%, the Viability % ([2]; sample conc. 7.4 µM, Table S9) was 92.75% and the Inhibitory % ([2]; sample conc. 14.9 µM, Table S9) was 19.54%. It also gave a Viability % ([2]; sample conc. 14.9 µM, Table S9) of 80.46%, an Inhibitory % ([2]; sample conc. 29.8 µM, Table S9) of 32.81% and a Viability % ([2]; sample conc. 29.8 µM, Table S9) of 67.19%. The Inhibitory % ([2]; sample conc. 59.6 µM, Table S9) was 50.72%, the Viability % ([2]; sample conc. 59.6 µM, Table S9) was 49.28% and the Inhibitory % [2, 15] was 63.38%. It also gave a Viability % [2, 15] of 36.62%, an Inhibitory % [2, 16] of 76.06% and a Viability % [2, 16] of 23.94%. For the same compound, the Inhibitory % [2, 17] was 88.72%, the Viability % [2, 17] was 11.28% and the Inhibitory % [2, 18] was 95.13%. The Viability % [2, 18] was 4.87%, the IC50 ([2]; A-549 cells, 24 h, MTT) was 58.3 µM and the “SI = CC50/IC50” value [2] was 2.96. For the same compound, the “SI = CC50/IC50” value ([2]; listed as 3) was 2.97, the Inhibitory % ([3]; sample conc. 1.9 µM, Table S14) was 0% and the Viability % ([3]; sample conc. 1.9 µM, Table S14) was 100%. The Inhibitory % ([3]; sample conc. 3.8 µM, Table S14) was 0%, the Viability % ([3]; sample conc. 3.8 µM, Table S14) was 100% and the Inhibitory % ([3]; sample conc. 7.4 µM, Table S14) was 0%. It also gave a Viability % ([3]; sample conc. 7.4 µM, Table S14) of 100%, an Inhibitory % [3, 19] of 1.37% and a Viability % [3, 19] of 98.63%. It also gave an Inhibitory % [3, 20] of 10.83%, a Viability % [3, 20] of 89.17% and an Inhibitory % [3, 21] of 23.08%. For the same compound, the Viability % [3, 21] was 76.92%, the Inhibitory % [3, 22] was 42.86% and the Viability % [3, 22] was 57.14%. The Inhibitory % [3, 23] was 58.72%, the Viability % [3, 23] was 41.28% and the Inhibitory % [3, 24] was 79.35%. For the same compound, the Viability % [3, 24] was 20.65%, the Inhibitory % [3, 25] was 92.46% and the Viability % [3, 25] was 7.54%. It also gave a CC50 [3] of 173 µM.
